Experimental data from the Kinase Knowledgebase extract (Sharma et al. 2016).
pIC50: −log10 of the molar value.

Experiments:
PIK3CD (Human) [1] = molecular target: PIK3CD (Human) (UniProt O00329); assay: Assessment of PIK3CD Kinase Activity
PIK3CG (human) = PIK3CG (human) (UniProt P48736); assay: Assessment of PIK3CG Kinase Activity
PIK3CD (Human) [2] = molecular target: PIK3CD (Human) (UniProt O00329); assay: Assessment of PIK3CD Kinase Activity in RAJI Cells
PIK3CB (Human) [3] = molecular target: PIK3CB (Human) (UniProt P42338); assay: Assessment of PIK3CB Kinase Activity in 786-O Cells
Chain of PIK3CB (Human) (P42338 whole entry, looked up): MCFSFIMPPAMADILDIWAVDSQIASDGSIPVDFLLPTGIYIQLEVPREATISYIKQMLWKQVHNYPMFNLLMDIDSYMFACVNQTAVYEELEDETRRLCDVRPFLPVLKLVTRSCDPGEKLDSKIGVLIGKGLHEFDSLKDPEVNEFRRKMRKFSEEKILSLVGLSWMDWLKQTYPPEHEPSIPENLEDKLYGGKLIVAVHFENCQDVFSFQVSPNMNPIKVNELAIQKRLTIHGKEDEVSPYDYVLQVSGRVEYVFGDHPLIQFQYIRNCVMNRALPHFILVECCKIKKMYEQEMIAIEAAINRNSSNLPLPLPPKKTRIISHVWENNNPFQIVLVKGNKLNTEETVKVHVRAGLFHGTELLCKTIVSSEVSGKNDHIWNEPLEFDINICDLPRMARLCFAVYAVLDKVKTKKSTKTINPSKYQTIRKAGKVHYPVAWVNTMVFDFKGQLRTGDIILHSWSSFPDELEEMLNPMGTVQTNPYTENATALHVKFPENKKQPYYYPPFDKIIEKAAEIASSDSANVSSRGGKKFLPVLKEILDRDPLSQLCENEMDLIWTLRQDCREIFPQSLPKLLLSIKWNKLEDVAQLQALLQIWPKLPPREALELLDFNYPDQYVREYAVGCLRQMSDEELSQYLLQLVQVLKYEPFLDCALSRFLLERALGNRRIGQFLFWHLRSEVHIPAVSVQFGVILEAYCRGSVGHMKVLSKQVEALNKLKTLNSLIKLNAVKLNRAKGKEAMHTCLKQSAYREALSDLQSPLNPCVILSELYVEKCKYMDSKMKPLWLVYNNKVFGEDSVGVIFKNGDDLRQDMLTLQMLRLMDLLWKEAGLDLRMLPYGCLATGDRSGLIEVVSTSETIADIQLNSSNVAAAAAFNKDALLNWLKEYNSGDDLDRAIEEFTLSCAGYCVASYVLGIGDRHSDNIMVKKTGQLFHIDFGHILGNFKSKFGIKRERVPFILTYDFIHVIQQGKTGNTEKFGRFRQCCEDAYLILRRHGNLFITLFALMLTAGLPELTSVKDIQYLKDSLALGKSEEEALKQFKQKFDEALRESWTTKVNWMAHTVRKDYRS

PIK3CA (human) [4] = molecular target: PIK3CA (human) (UniProt P42336); assay: Assessment of PIK3CA Kinase Activity
Chain of PIK3CA (human) (P42336 whole entry, looked up): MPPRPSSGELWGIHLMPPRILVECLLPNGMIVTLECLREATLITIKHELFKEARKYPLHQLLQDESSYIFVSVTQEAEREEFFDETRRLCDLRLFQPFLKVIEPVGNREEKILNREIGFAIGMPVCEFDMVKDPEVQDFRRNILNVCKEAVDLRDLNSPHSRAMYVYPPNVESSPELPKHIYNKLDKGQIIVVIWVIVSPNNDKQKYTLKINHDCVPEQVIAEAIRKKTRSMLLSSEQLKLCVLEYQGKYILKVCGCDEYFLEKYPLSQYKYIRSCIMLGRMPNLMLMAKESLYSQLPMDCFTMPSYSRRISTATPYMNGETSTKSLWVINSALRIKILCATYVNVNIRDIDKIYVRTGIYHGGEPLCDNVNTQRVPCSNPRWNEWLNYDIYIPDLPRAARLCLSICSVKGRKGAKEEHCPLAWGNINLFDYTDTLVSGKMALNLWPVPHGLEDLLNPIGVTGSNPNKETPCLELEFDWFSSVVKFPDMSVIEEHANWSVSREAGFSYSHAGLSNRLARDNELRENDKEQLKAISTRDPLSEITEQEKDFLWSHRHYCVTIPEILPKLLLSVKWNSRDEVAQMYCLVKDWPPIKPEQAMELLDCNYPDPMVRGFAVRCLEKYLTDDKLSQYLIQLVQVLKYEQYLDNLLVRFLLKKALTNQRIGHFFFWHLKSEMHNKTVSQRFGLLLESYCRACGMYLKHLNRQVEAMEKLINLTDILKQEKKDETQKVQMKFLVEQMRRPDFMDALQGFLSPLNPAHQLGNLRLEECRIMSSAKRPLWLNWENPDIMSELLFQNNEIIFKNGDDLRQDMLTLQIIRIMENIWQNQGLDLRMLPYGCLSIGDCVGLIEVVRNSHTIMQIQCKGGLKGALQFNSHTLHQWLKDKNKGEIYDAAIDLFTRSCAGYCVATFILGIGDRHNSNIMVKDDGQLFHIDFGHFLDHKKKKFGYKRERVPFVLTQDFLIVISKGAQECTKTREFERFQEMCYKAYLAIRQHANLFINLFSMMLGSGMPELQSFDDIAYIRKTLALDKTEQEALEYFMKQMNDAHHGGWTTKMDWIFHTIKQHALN

PIK3CB (Human) [5] = molecular target: PIK3CB (Human) (UniProt P42338); assay: Assessment of PIK3CB Kinase Activity
PIK3CA (human) [6] = molecular target: PIK3CA (human) (UniProt P42336); assay: Assessment of PIK3CA Kinase Activity in SKOV-3 Cells

Chain of PIK3CG (human) (P48736 whole entry, looked up): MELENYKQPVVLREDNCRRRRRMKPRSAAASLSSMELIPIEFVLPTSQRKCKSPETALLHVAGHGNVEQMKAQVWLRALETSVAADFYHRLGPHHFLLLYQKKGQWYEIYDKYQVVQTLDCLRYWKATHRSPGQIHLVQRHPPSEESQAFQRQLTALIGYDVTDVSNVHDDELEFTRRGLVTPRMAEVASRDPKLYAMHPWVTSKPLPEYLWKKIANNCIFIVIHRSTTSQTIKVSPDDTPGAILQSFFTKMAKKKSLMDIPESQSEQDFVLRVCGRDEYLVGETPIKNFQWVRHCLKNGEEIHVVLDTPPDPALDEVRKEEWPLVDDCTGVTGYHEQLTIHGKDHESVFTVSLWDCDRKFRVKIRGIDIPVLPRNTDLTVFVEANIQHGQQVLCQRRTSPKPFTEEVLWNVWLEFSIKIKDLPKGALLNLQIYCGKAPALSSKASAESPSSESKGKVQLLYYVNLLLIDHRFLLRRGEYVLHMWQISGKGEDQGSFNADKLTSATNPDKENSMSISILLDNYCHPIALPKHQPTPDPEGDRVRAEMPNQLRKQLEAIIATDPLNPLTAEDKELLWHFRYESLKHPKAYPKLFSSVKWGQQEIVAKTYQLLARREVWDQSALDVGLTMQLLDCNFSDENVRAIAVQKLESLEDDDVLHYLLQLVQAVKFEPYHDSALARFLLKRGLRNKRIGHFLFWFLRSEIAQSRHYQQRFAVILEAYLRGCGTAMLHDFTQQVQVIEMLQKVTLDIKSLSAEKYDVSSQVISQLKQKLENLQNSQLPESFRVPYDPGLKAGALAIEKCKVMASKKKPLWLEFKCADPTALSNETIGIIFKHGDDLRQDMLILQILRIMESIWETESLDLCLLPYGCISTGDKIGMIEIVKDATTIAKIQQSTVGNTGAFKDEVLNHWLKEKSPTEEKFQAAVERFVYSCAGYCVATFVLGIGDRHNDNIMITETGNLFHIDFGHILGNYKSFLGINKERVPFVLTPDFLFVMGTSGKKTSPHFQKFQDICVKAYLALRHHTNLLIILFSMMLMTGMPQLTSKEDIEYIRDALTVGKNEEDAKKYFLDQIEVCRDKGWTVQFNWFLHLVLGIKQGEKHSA
Chain of PIK3CD (Human) (O00329 whole entry, looked up): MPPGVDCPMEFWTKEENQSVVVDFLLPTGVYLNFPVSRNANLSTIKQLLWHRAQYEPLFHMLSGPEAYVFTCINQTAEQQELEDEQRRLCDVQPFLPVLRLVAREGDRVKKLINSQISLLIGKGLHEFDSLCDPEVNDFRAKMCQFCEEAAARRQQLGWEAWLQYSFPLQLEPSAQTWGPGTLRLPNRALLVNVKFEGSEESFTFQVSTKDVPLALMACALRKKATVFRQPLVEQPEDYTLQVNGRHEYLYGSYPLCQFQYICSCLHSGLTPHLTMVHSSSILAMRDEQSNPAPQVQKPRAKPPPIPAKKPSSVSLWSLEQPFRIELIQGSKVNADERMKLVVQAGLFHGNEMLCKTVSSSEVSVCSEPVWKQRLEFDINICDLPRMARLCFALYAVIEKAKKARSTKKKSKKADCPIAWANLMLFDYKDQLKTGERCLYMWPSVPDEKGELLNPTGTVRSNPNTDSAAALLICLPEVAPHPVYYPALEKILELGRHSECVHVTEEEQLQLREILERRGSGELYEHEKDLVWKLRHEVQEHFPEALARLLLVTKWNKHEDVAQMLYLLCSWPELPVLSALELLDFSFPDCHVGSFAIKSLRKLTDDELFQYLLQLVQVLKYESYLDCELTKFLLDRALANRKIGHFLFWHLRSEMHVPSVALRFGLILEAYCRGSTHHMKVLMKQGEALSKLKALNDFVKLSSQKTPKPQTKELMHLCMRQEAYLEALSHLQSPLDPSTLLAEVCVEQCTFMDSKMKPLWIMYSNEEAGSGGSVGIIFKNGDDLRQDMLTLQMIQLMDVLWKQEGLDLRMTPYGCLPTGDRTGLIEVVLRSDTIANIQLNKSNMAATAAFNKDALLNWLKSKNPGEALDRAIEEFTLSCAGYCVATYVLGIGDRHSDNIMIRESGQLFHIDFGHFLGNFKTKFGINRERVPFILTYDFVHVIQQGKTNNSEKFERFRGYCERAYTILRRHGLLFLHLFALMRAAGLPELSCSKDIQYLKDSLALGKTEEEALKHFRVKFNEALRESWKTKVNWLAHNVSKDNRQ

pIC50 (PIK3CD (Human) [1]) | pIC50 (PIK3CG (human)) | pIC50 (PIK3CD (Human) [2]) | pIC50 (PIK3CB (Human) [3]) | pIC50 (PIK3CA (human) [4]) | pIC50 (PIK3CB (Human) [5]) | pIC50 (PIK3CA (human) [6]) | Structure (SMILES)
> 7.00 | 6.00 to 7.00 | > 7.00 | 6.00 to 7.00 |  |  |  | CC(C)n1c([C@H](C)Nc2nc(N)ncc2C#N)cc2cccc(-c3ccc(=O)n(C)c3)c2c1=O
 | < 5.00 | > 7.00 |  | < 5.00 | < 5.00 | < 5.00 | C[C@H](Nc1nc(N)ncc1C#N)c1cc2cccc(Cl)c2c(C(=O)NC2CCOCC2)n1
> 7.00 | > 7.00 | > 7.00 |  | < 5.00 | 6.00 to 7.00 |  | C[C@H](Nc1nc(N)ncc1-c1cccc(S(=O)(=O)N2CCCC2)c1)c1cc2cccc(Cl)c2c(=O)n1-c1ccccc1
> 7.00 |  | > 7.00 |  | < 5.00 | < 5.00 | 6.00 to 7.00 | Cc1ncc(-c2cccc3cc([C@H](C)Nc4nc(N)ncc4C#N)n(C(C)C)c(=O)c23)cn1
> 7.00 | > 7.00 | > 7.00 |  | < 5.00 | 6.00 to 7.00 |  | C[C@H](Nc1nc(N)ncc1-c1cccc(NS(=O)(=O)N(C)C)c1)c1cc2cccc(Cl)c2c(=O)n1-c1ccccc1
> 7.00 | > 7.00 | > 7.00 | < 5.00 | < 5.00 | < 5.00 | < 5.00 | COc1nc(-c2cnc(N)nc2N[C@@H](C)c2cc3cccc(-c4ccc(=O)n(C)c4)c3c(=O)n2-c2ccccc2)cs1
> 7.00 | > 7.00 | > 7.00 |  | 6.00 to 7.00 | > 7.00 |  | CC(=O)c1cnc(N)nc1N[C@@H](C)c1cc2cccc(Cl)c2c(=O)n1-c1ccccc1
6.00 to 7.00 | 6.00 to 7.00 | > 7.00 |  | < 5.00 | < 5.00 |  | CC(C)OC(=O)c1cccc(-n2c([C@H](C)Nc3nc(N)ncc3C#N)cc3cccc(Cl)c3c2=O)c1
> 7.00 | > 7.00 | > 7.00 | < 5.00 |  | < 5.00 |  | COc1ncc(-c2cccc3cc([C@H](C)Nc4nc(N)ncc4C#N)n(-c4ccccc4)c(=O)c23)cn1
6.00 to 7.00 | > 7.00 | > 7.00 |  | < 5.00 | < 5.00 |  | C[C@H](Nc1nc(N)ncc1-c1cn[nH]c1)c1cc2cccc(Cl)c2c(=O)n1-c1ccccc1
> 7.00 | 6.00 to 7.00 | > 7.00 |  | < 5.00 | < 5.00 |  | COc1ncc(-c2cccc3cc([C@H](C)Nc4ncnc(N)c4C#N)n(-c4ccccc4)c(=O)c23)cn1
> 7.00 | > 7.00 | > 7.00 |  |  |  | 6.00 to 7.00 | CCOc1nc(-c2cnc(N)nc2N[C@@H](C)c2cc3cccc(-c4ccc(=O)n(C)c4)c3c(=O)n2-c2ccccc2)cs1
6.00 to 7.00 | > 7.00 | > 7.00 |  | < 5.00 | < 5.00 |  | C[C@H](Nc1nc(N)ncc1C#N)c1cc2cccc(Cl)c2c(=O)n1-c1cc(F)cc(F)c1
> 7.00 | 6.00 to 7.00 | > 7.00 | 6.00 to 7.00 |  |  |  | CC(C)n1c([C@H](C)Nc2ncnc(N)c2C#N)cc2cccc(-c3ccc(=O)n(C)c3)c2c1=O
> 7.00 | > 7.00 | > 7.00 |  | < 5.00 | < 5.00 |  | C[C@H](Nc1nc(N)ncc1-c1cncs1)c1cc2cccc(-c3ccc(=O)n(C)c3)c2c(=O)n1-c1ccccc1
> 7.00 | > 7.00 | > 7.00 |  | 6.00 to 7.00 | 6.00 to 7.00 |  | C=CS(=O)(=O)Nc1cccc(-c2cnc(N)nc2N[C@@H](C)c2cc3cccc(Cl)c3c(=O)n2-c2ccccc2)c1
> 7.00 | 6.00 to 7.00 | > 7.00 |  | < 5.00 | < 5.00 |  | COc1cc(-c2cccc3cc(CNc4nc(N)ncc4C#N)n(-c4ccccc4)c(=O)c23)ccn1
